One series deals with OPM2 cells. Kind of series: CFZ potency increase, ratio of CC50 of CFZ alone / with compound. The series is classed as cell-based, human. The procedure, abridged: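 OPM2 cells (12,000/well, 0.2% DMSO) treated with compound plus carfilzomib, with NucView 488 caspase-3/7 substrate (1 μM) and Hoechst 33342, 37 °C; confocal imaging over time gives % apoptotic cells. CFZ CC50 from 4-parameter fits alone and with compound; activity = CC50 alone / CC50 with compound.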

A further series deals with HeLa cells. The series is described as above. The settings on record: compound at 7.5 μM. The series is classed as cell-based, human. From the text:
Human HeLa cells (uterine cervical carcinoma) are maintained in DMEM medium supplemented with GlutaMAX™, 10% fetal bovine serum and 1% penicillin-streptomycin.
(§1) We developed a cell-based, high content assay allowing the rapid detection and quantification of apoptotic cells. Caspase-3/7 activity was detected in real-time using the NucView™ 488 Caspase-3 substrate (Biotium), where the caspase-3/7 substrate peptide sequence DEVD is attached to a nucleic acid dye. The NucView™ 488 reagent crosses the plasma membrane to enter the cytoplasm, where the dye is unable to bind to DNA and remains non-fluorescent. Once the substrate has been cleaved by activated caspase-3/7 in apoptotic cells, the high-affinity DNA dye is released and migrates to the cell nucleus to stain the nucleus with a bright green fluorescence. All cell nuclei were also labeled with Hoechst 33342 (Ozyme).
(§2) For HeLa and MCF7 cells, briefly, cells were seeded in 384-microtiter well plate (1500 HeLa cells or 5000 MCF7 cells in 40 μL full medium per well) and let to attach overnight. Then the compound of the invention and the RE stressor were transferred to the cell culture plate using an Echo555 liquid handler (Labcyte) and 30 μL medium containing NucView™ and Hoechst 33342 were added. Final NucView™ 488 and Hoechst 33342 concentrations were 1 μM and 20 ng/mL, respectively. DMSO content was maintained at 0.2%. The microplates were incubated at 37° C. and 5% CO2 in an automated LiCONiC STR240 UB cell incubator, and images were acquired at various times at 405 nm and 488 nm with the high-resolution automated confocal microscope INCell 6000 (GE). Four fields per well were read with the 20× objective in a confocal mode. The BioCel workstation was managed by VWorks automation control software (Agilent).
(§3) For all cells, Columbus software (Perkin) was used for image quantification and analysis. First, Hoechst 33342 staining was used for an automated detection of nuclei, in which the mean fluorescence intensity for NucView™ 488 was quantified. Inspection of control cells at initial time was used to set a threshold level of NucView™ 488 fluorescence to separate non apoptotic cells from apoptotic cells. Finally, for each well, the result was expressed as percentage of apoptotic cells in the total cell population. CC50 values were calculated from concentration-response curves by a nonlinear regression analysis at four parameters using Excel Fit or GraphPad Prim softwares.
(§4) Activity=(% of apoptotic cells with cytotoxic agent in combination with compound of the invention)/(% of apoptotic cells with cytotoxic agent alone). • Ratio of CC50: The CC50 of the cytotoxic agent was calculated in absence and in presence of a compound of the invention.
(§5) Activity=(CC50 of agent alone)/(CC50 of agent with compound). • Ratio of AUC. Activity=(Area of the dose-concentration curve of cytotoxic agent combined with one concentration of compound)/(Area of the dose-concentration curve of cytotoxic agent alone). (Lehar J. et al, 2008 (molecular systems biology 4:215)).

In the next series the test system is MCF7 cells. The series is described as above. In kind it is cell-based, human. The settings on record: MCF7, compound at 15 μM. The protocol:
Human epithelial MCF7 cells (mammary gland adenocarcinoma) are maintained in EMEM medium supplemented with GlutaMAX™, 10% fetal bovine serum, 0.01 mg insulin and 1% penicillin-streptomycin.
as §1, §2, §3, §4, §5

Where [1] appears, read: OPM2, compound at 7.5 μM (Table 5).
[2] abbreviates: OPM2, compound at 7.5 μM (Table 6).

One may read the melting point as the temperature, or range, at which the solid turns liquid.

`O=C(C[C@@H](Cc1ccc2ccccc2c1)n1cc(CNC(=O)c2ccccc2)nn1)NO` [Compound 1, N-[1-((R)-2-Hydroxycarbamoyl-1-naphthalen-2-ylmethyl-ethyl)-1H-[1,2,3]triazol-4-ylmethyl]-benzamide]: the melting point lay in the range of 192.8 to 194 °C.
`O=C(C[C@@H](Cc1ccc2ccccc2c1)n1cc(CNC(=O)CCc2ccccc2)nn1)NO` [Compound 10, (R)—N-Hydroxy-4-naphthalen-2-yl-3-{4-[(3-phenyl-propionylamino)-methyl]-[1,2,3]triazol-1-yl}-butyramide]: the melting point lay within 150 to 151.4 °C.
Consider `O=C(C[C@@H](Cc1ccc2ccccc2c1)n1cc(CNS(=O)(=O)c2ccccc2)nn1)NO` [Compound 7, (R)-3-[4-(Benzenesulfonylamino-methyl)-[1,2,3]triazol-1-yl]-N-hydroxy-4-naphthalen-2-yl-butyramide], for which the melting point lay within 137.4 to 138.8 °C.
Consider `O=C(CC(Cc1ccc2ccccc2c1)c1nc(CNC(=O)c2ccc(F)cc2)no1)NO` (stereo not shown) [Compound 27, 4-fluoro-N-[5-(1-hydroxycarbamoylmethyl-2-naphthalen-2-yl-ethyl)-[1,2,4]oxadiazol-3-ylmethyl]-benzamide], for which the “Activity: ratio (CC50 of CFZ alone)/(CC50 of CFZ in combination with compound of the invention)” value (“Activity: ratio” below) in the series with OPM2 cells (setting [1]) is listed as 2.4; in the series on OPM2 cells (setting [2]) it was 2.4; in the series on HeLa cells it was 3.0; in the series on MCF7 cells it was 2.8.
Take `O=C(C[C@@H](Cc1ccc2ccccc2c1)n1cc(CCC(=O)Nc2ccc(F)c(F)c2)nn1)NO` [Compound 81, N-(3,4-difluorophenyl)-3-[1-[3-(hydroxyamino)-1-(2-naphthylmethyl)-3-oxo-propyl]triazol-4-yl]propanamide]: the “Activity: ratio” value in the series with OPM2 cells (setting [1]) was determined as 2.3; in the series with OPM2 cells (setting [2]) it was 2.3; with HeLa cells, 3.5; in the series on MCF7 cells it was 2.5.
In turn, `Cc1ccc(S(=O)(=O)NCc2cn([C@@H](CC(=O)NO)Cc3ccc4ccccc4c3)nn2)cc1` [Compound 5, (R)—N-Hydroxy-4-naphthalen-2-yl-3-{4-[(toluene-4-sulfonylamino)-methyl]-[1,2,3]triazol-1-yl}-butyramide] had a melting point of 115.8 to 117.2 °C.
For `O=C(C[C@@H](Cc1ccc2ccccc2c1)n1cc(CNC(=O)c2ccc(F)c(F)c2)nn1)NO` [Compound 54, 3,4-difluoro-N-[[1-[(1R)-3-(hydroxyamino)-1-(2-naphthylmethyl)-3-oxo-propyl]triazol-4-yl]methyl]benzamide], the “Activity: ratio” value with OPM2 cells (setting [1]) was determined as 1.8; in the series on OPM2 cells (setting [2]) it was 1.8; in the series with HeLa cells it was 2.3; in the series with MCF7 cells, 2.2.
`O=C(C[C@@H](Cc1ccc(-c2ccccc2)cc1)n1cc(CNC(=O)c2ccc(F)cc2)nn1)NO` [Compound 32, (R)—N-[1-(1-biphenyl-4-ylmethyl-2-hydroxycarbamoyl-ethyl)-1H-[1,2,3]triazol-4-ylmethyl]-4-fluoro-benzamide]: the “Activity: ratio” value with OPM2 cells (setting [1]) stood at 1.9; with OPM2 cells (setting [2]), 1.9; with HeLa cells it was 4.5; with MCF7 cells it was 2.7.
For `CC(C)C[C@H](NCc1cn([C@@H](CC(=O)NO)Cc2ccc3ccccc3c2)nn1)C(=O)OC(C)(C)C` [Compound 20], the “Activity: ratio” value in the series with OPM2 cells (setting [1]) is given as 2.1; in the series on OPM2 cells (setting [2]), 2.1; in the series with HeLa cells, 6.3; in the series with MCF7 cells, 3.4.
For `COc1ccc(C(=O)NCc2cn([C@@H](CC(=O)NO)Cc3ccc4ccccc4c3)nn2)cc1` [Compound 2], the melting point was 178.3 to 179.6 °C.
As for `CC(NC(=O)c1ccc(F)c(F)c1)c1cn([C@@H](CC(=O)NO)Cc2ccc3ccccc3c2)nn1` (stereo in doubt) [Compound 86, 3,4-Difluoro-N-{1-[1-(1(R)-hydroxycarbamoylmethyl-2-naphthalen-2-yl-ethyl)-1H-[1,2,3]triazol-4-yl]-(R)-ethyl}-benzamide], the “Activity: ratio” value amounted to 1.7 with OPM2 cells (setting [1]), 1.7 in the series on OPM2 cells (setting [2]), 2.6 in the series with HeLa cells and 1.7 in the series with MCF7 cells.
On to `O=C(C[C@@H](Cc1ccc2ccccc2c1)n1cc(CNC(=O)c2ccc(C(F)(F)F)cc2)nn1)NO` [Compound 4, N-[1-(R-2-Hydroxycarbamoyl-1-naphthalen-2-ylmethyl-ethyl)-1H-[1,2,3]triazol-4-ylmethyl]-4-trifluoromethyl-benzamide], for which the melting point was in the range of 198.9 to 200.4 °C.
For the compound `O=C(NCc1cn([C@H](Cc2ccc3ccccc3c2)C(=O)NO)nn1)c1ccc(F)cc1` [Compound 43, (R)-4-Fluoro-N-[1-(1-hydroxycarbamoyl-2-naphthalen-2-yl-ethyl)-1H-[1,2,3]triazol-4-ylmethyl]-benzamide], the “Activity: ratio” value in the series with OPM2 cells (setting [1]) is given as 1.7; in the series on OPM2 cells (setting [2]), 1.7; in the series on HeLa cells, 2.6; with MCF7 cells it was 2.6.

For the origin of these results see patent US20220073475A1, “5-MEMBERED HETEROARYL COMPOUNDS CONTAINING A HYDROXAMATE MOIETY AND THEIR USE” (UNIVERSITE DE LILLE, priority 2019, published 2022).
